Experimental data as given in US20240083890A1, “MACROCYCLIC BRANCHED 3-FLUORO-BUT-3-ENAMIDES AS INHIBITORS OF MCL-1” (JANSSEN PHARMACEUTICA NV, priority 2020, published 2024).
Read-outs that look alike come from different tables or passages of the source.

How the values were obtained:
Mcl-1 = Mcl-1 (Homo sapiens (Human), UniProt Q07820); assay: Terbium labeled Mcl-1 HTRF binding assay, displacement of Cy5-labeled BIM BH3 peptide; conditions: Ki=IC50/(1+[L]/Kd), [L]=8 nM, Kd=10 nM; 25 pM Tb-Mcl-1, 8 nM Cy5 Bim peptide, 60 min; read-out: Tb-MCL1 Ki
Chain of Mcl-1 (Q07820 whole entry): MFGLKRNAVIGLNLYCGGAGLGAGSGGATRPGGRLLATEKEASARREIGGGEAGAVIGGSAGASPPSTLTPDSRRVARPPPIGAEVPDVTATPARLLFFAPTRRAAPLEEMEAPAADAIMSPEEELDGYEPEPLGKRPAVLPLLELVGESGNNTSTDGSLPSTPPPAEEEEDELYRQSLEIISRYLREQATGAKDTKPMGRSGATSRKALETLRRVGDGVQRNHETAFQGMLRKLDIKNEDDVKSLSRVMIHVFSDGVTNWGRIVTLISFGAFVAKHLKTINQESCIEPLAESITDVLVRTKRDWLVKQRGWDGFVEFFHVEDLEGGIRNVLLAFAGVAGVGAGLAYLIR
Protocol: Terbium labeled Myeloid Cell Leukemia 1(Mcl-1) homogeneous time-resolved fluorescence (HTRF) binding assay utilizing the BIM BH3 peptide (H2N—(C/Cy5Mal) WIAQELRRIGDEFN-OH) as the binding partner for Mcl-1.
This assay evaluated inhibition of the BH3 domain: Mcl-1 interaction by measuring the displacement of Cy5-labeled BIM BH3 peptide (H2N—(C/Cy5Mal) WIAQELRRIGDEFN-OH) in the HTRF assay format.
The following assay and stock buffers were prepared for use in the assay: (a) Stock buffer: 10 mM Tris-HCl, pH=7.5+150 mM NaCl, filtered, sterilized, and stored at 4° C.; and (b) 1× assay buffer, where the following ingredients were added fresh to stock buffer: 2 mM dithiothreitol (DTT), 0.0025% Tween-20, 0.1 mg/mL bovine serum albumin (BSA). The 1× Tb-Mcl-1+Cy5 Bim peptide solution was prepared by diluting the protein stock solution using the 1× assay buffer (b) to 25 pM Tb-Mcl-1 and 8 nM Cy5 Bim peptide.
Using the Acoustic ECHO, 100 nL of 100× test compound(s) were dispensed into individual wells of a white 384-well Perkin Elmer Proxiplate, for a final compound concentration of 1× and final DMSO concentration of 1%. Inhibitor control and neutral control (NC, 100 nL of 100% DMSO) were stamped into columns 23 and 24 of assay plate. Into each well of the plate was then dispensed 10 μL of the 1× Tb-Mcl-1+Cy5 Bim peptide solution. The plate was centrifuged with a cover plate at 1000 rpm for 1 minute, then incubated for 60 minutes at room temperature with plates covered.
The TR-FRET signal was read on an BMG PHERAStar FSX MicroPlate Reader at room temperature using the HTRF optic module (HTRF: excitation: 337 nm, light source: laser, emission A: 665 nm, emission B: 620 nm, integration start: 60 μs, integration time: […]).
The BMG PHERAStar FSX MicroPlate Reader was used to measure fluorescence intensity at two emission wavelengths—665 nm and 620 nm—and report relative fluorescence units (RFU) for both emissions, as well as a ratio of the emissions (665 nm/620 nm)*10,000. The RFU values were normalized to percent inhibition as follows:
% inhibition (((NC−IC)−(compound-IC))/(NC−IC))*100
where IC (inhibitor control, low signal)=mean signal of 1× Tb-MCl-1+Cy5 Bim peptide+inhibitor control or 100% inhibition of Mel-1; NC (neutral control, high signal)=mean signal 1× Tb-MCI-1+Cy5 Bim peptide with DMSO only or 0% inhibition
An 11-point dose response curve was generated to determine IC50 values (using GenData) based on the following equation:
Y=Bottom+(Top-Bottom)/(1+10^((log IC50−X)*HillSlope))
where Y=% inhibition in the presence of X inhibitor concentration; Top=100% inhibition derived from the IC (mean signal of Mcl-1+inhibitor control); Bottom=0% inhibition derived from the NC (mean signal of Mcl-1+DMSO); Hillslope=Hill coefficient; and IC50=concentration of compound with 50% inhibition in relation to top/neutral control (NC).
In this assay [L]=8 nM and Kd=10 nM
Representative compounds of the present invention were tested according to the procedure as described above, with results as listed in the Table below (n.d. means not determined).

[1] = tested on: MOLP-8 human multiple myeloma cell line; assay: Caspase-Glo 3/7 apoptosis induction assay in MOLP-8 cells; assay type: cell-based; conditions: caspase-3/7 activation, 2 hours incubation at 37° C., averaged over all runs on all batches, read-out: MOLP8 AC50
From the text: MCL-1 is a regulator of apoptosis and is highly over-expressed in tumor cells that escape cell death. The assay evaluates the cellular potency of small-molecule compounds targeting regulators of the apoptosis pathway, primarily MCL-1, Bfl-1, Bcl-2, and other proteins of the Bcl-2 family. Protein-protein inhibitors disrupting the interaction of anti-apoptotic regulators with BH3-domain proteins initiate apoptosis.
The Caspase-Glo® 3/7 Assay is a luminescent assay that measures caspase-3 and -7 activities in purified enzyme preparations or cultures of adherent or suspension cells. The assay provides a proluminescent caspase-3/7 substrate, which contains the tetrapeptide sequence DEVD. This substrate is cleaved to release aminoluciferin, a substrate of luciferase used in the production of light. Addition of the single Caspase-Glo® 3/7 Reagent in an “add-mix-measure” format results in cell lysis, followed by caspase cleavage of the substrate and generation of a “glow-type” luminescent signal.
This assay uses the MOLP-8 human multiple myeloma cell line, which is sensitive to MCL-1 inhibition.
Cell cultures were maintained between 0.2 and 2.0×10^6 cells/mL. The cells were harvested by collection in 50 mL conical tubes. The cells were then pelleted at 500 g for 5 mins before removing supernatant and resuspension in fresh pre-warmed culture medium. The cells were counted and diluted as needed.
The assay reagent was prepared by transferring the buffer solution to the substrate vial and mixing. The solution may be stored for up to 1 week at 4° C. with negligible loss of signal.
Compounds were delivered in assay-ready plates (Proxiplate) and stored at −20° C.
Assays always include 1 reference compound plate containing reference compounds. The plates were spotted with 40 nL of compounds (0.5% DMSO final in cells; serial dilution; 30 μM highest conc. 1/3 dilution, 10 doses, duplicates). The compounds were used at room temperature and 4 μL of pre-warmed media was added to all wells except column 2 and 23. The negative control was prepared by adding 1% DMSO in media. The positive control was prepared by adding the appropriate positive control compound in final concentration of 60 μM in media. The plate was prepared by adding 4 μL negative control to column 23, 4 μL positive control to column 2, and 4 μL cell suspension to all wells in the plate. The plate with cells was then incubated at 37° C. for 2 hours. The assay signal reagent is the Caspase-Glo solution described above, and 8 μL was added to all wells. The plates were then sealed and measured after 30 minutes.
The activity of a test compound was calculated as percent change in apoptosis induction as follows: • LC=median of the Low Control values • =Central Reference in Screener • =DMSO • =0% • HC=Median of the High Control values • =Scale Reference in Screener • =30 μM of positive control • =100% apoptosis induction
% Effect (AC50)=100−((sample-LC)/(HC-LC))*100
% Control=(sample/HC)*100
% Control min=((sample-LC)/(HC-LC))*100
Table: Measured AC50 for Representative Compounds of Formula (I). Averaged values are reported over all runs on all batches of a particular compound.

Row | Structure (SMILES) | Ki (Mcl-1) | AC50 ([1]; Homo sapiens, MOLP-8) | AC50 [1]
1 | C[C@@H]1[C@@H](C)C/C=C(\F)C(C(O)COCC2CCOCC2)N2CC[C@H]2CN2C[C@@]3(CCCc4cc(Cl)ccc43)COc3ccc(cc32)C(=O)NS1(=O)=O (single isomer, unassigned) [Compound 5] | 0.23 nM | 238 nM | –
2 | C[C@@H]1[C@@H](C)C/C=C(\F)[C@H]([C@@H](C)O)N2CC[C@H]2CN2C[C@@]3(CCCc4cc(Cl)ccc43)COc3ccc(cc32)C(=O)NS1(=O)=O [Compound 1] | 0.326 nM | 116 nM | –
3 | C[C@H](O)[C@H]1/C(F)=C/C[C@H](C)[C@@H](C)S(=O)(=O)NC(=O)c2ccc3c(c2)N(C[C@@H]2CCN21)C[C@@]1(CCCc2cc(Cl)ccc21)CO3 [Compound 2] | 0.106 nM | 122 nM | –
4 | C[C@@H]1[C@@H](C)C/C=C(\F)[C@H]([C@@H](C)O)N2CCC[C@H]2CN2C[C@@]3(CCCc4cc(Cl)ccc43)COc3ccc(cc32)C(=O)NS1(=O)=O [Compound 3] | 1.56 nM | 217 nM | –
5 | C[C@H](O)[C@H]1/C(F)=C/C[C@H](C)[C@@H](C)S(=O)(=O)NC(=O)c2ccc3c(c2)N(C[C@@H]2CCCN21)C[C@@]1(CCCc2cc(Cl)ccc21)CO3 [Compound 4] | 0.236 nM | 238 nM | –
6 | C[C@@H]1[C@@H](C)C/C=C(\F)[C@H]([C@@H](O)COCC2CCOCC2)N2CC[C@H]2CN2C[C@@]3(CCCc4cc(Cl)ccc43)COc3ccc(cc32)C(=O)NS1(=O)=O [Compound 6] | 0.053 nM | 68.5 nM | –
7 | COC[C@]1([C@@H]2COC(C)(C)O2)/C(F)=C/C[C@H](C)[C@@H](C)S(=O)(=O)NC(=O)c2ccc3c(c2)N(C[C@@H]2CCN21)C[C@@]1(CCCc2cc(Cl)ccc21)CO3 [Compound 7] | 0.221 nM | 134 nM | –
8 | CO[C@@H](CO)[C@@]1(CO)/C(F)=C/C[C@H](C)[C@@H](C)S(=O)(=O)NC(=O)c2ccc3c(c2)N(C[C@@H]2CCN21)C[C@@]1(CCCc2cc(Cl)ccc21)CO3 [Compound 8] | 0.357 nM | 3960 nM | –
9 | C[C@@H]1[C@@H](C)C/C=C(\F)[C@@]2(COC(C)(C)OC[C@@H]2O)N2CC[C@H]2CN2C[C@@]3(CCCc4cc(Cl)ccc43)COc3ccc(cc32)C(=O)NS1(=O)=O [Compound 9] | 0.04 nM | 64.8 nM | –
10 | C[C@@H]1[C@@H](C)C/C=C(\F)[C@](CO)([C@@H]2COC(C)(C)O2)N2CC[C@H]2CN2C[C@@]3(CCCc4cc(Cl)ccc43)COc3ccc(cc32)C(=O)NS1(=O)=O [Compound 10] | – | 553 nM | –
11 | C[C@@H]1[C@@H](C)C/C=C(\F)[C@@]2(COC(C)(C)OC[C@@H]2O)N2CCC[C@H]2CN2C[C@@]3(CCCc4cc(Cl)ccc43)COc3ccc(cc32)C(=O)NS1(=O)=O [Compound 11] | 0.172 nM | 96.5 nM | –
12 | CO[C@H]1COC(C)(C)OC[C@@]12/C(F)=C/C[C@H](C)[C@@H](C)S(=O)(=O)NC(=O)c1ccc3c(c1)N(C[C@@H]1CCCN12)C[C@@]1(CCCc2cc(Cl)ccc21)CO3 [Compound 12] | 0.359 nM | 885 nM | –
13 | C[C@@H]1[C@@H](C)C/C=C(\F)C2(COC(C)(C)OC2)N2CC[C@H]2CN2C[C@@]3(CCCc4cc(Cl)ccc43)COc3ccc(cc32)C(=O)NS1(=O)=O [Compound 13] | 1.77 nM | 1110 nM | –
14 | C[C@@H]1[C@@H](C)C/C=C(\F)C2(COC(C)(C)OC2)N2CCC[C@H]2CN2C[C@@]3(CCCc4cc(Cl)ccc43)COc3ccc(cc32)C(=O)NS1(=O)=O [Compound 14] | 0.241 nM | 759 nM | –
15 | COC[C@H](OC)[C@@]1(COC)/C(F)=C/C[C@H](C)[C@@H](C)S(=O)(=O)NC(=O)c2ccc3c(c2)N(C[C@@H]2CCN21)C[C@@]1(CCCc2cc(Cl)ccc21)CO3 [Compound 15] | – | 503 nM | –
16 | COC[C@H](O)[C@@]1(COC)/C(F)=C/C[C@H](C)[C@@H](C)S(=O)(=O)NC(=O)c2ccc3c(c2)N(C[C@@H]2CCN21)C[C@@]1(CCCc2cc(Cl)ccc21)CO3 [Compound 16] | 0.072 nM | 222 nM | –
17 | C[C@@H]1[C@@H](C)C/C=C(\F)[C@H]([C@@H](C)O)N2CCC[C@H]2CN2C[C@@]3(CCOc4cc(Cl)ccc43)COc3ccc(cc32)C(=O)NS1(=O)=O [Compound 17] | 2.41 nM | 3350 nM | –
18 | C[C@H](O)[C@@H]1/C(F)=C/C[C@H](C)[C@@H](C)S(=O)(=O)NC(=O)c2ccc3c(c2)N(C[C@@H]2CCCN21)C[C@@]1(CCOc2cc(Cl)ccc21)CO3 [Compound 18] | 0.606 nM | – | 3420 nM
19 | C[C@@H]1[C@@H](C)C/C=C(\F)[C@H]([C@@H](O)Cn2cccn2)N2CC[C@H]2CN2C[C@@]3(CCCc4cc(Cl)ccc43)COc3ccc(cc32)C(=O)NS1(=O)=O [Compound 19] | 0.049 nM | 126 nM | –
20 | C[C@@H]1[C@@H](C)C/C=C(\F)[C@H]([C@@H](O)COC2CCOCC2)N2CCC[C@H]2CN2C[C@@]3(CCCc4cc(Cl)ccc43)COc3ccc(cc32)C(=O)NS1(=O)=O [Compound 20] | 0.052 nM | 272 nM | –
21 | C[C@@H]1[C@@H](C)C/C=C(\F)[C@H]([C@@H](O)CN2CCOCC2)N2CC[C@H]2CN2C[C@@]3(CCCc4cc(Cl)ccc43)COc3ccc(cc32)C(=O)NS1(=O)=O [Compound 21] | 0.051 nM | 87.9 nM | –
22 | C[C@@H]1[C@@H](C)C/C=C(\F)[C@H]([C@@H](O)CN2CCOCC2)N2CCC[C@H]2CN2C[C@@]3(CCCc4cc(Cl)ccc43)COc3ccc(cc32)C(=O)NS1(=O)=O [Compound 22] | 0.08 nM | 239 nM | –
23 | COCCN(CCOC)C[C@H](O)[C@H]1/C(F)=C/C[C@H](C)[C@@H](C)S(=O)(=O)NC(=O)c2ccc3c(c2)N(C[C@@H]2CCN21)C[C@@]1(CCCc2cc(Cl)ccc21)CO3 [Compound 23] | 0.023 nM | 69.6 nM | –
